Patent US6355799B1, “Substituted benzene compounds, process for their preparation, and herbicidal and defoliant compositions containing them” (ISK Americas Incorporated, priority 1997, dated 2002)

Tests used:
Type in all cases: in vivo
[1] = test system: redroot pigweed (Amaranthus retroflexus, AMARE); test: Pre-emerge test, greenhouse herbicide activity screening; settings: rating scale 0-100, 14 days after application
In short: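 Compounds in acetone were track-sprayed at 15-1000 g ai/ha (187 l/ha) on sandy loam pots: pre-emerge one day after seeding, post-emerge at 2-3 leaf stage with 0.25% v/v non-ionic surfactant. Phytotoxicity was rated 14 days later on a 0 (no damage) to 100 (complete death) scale.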

[2] = test system: field corn (Zea mays L., var. Dekalb 535, CORN); test: Post-emerge test, crop safety; settings: rating scale 0-100 (0 no damage, 100 complete death), 14 days after application
In short: (§1)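 Rating: 0–100 visual injury, 14 DAA. Application: acetone, 187 l/ha, 15–1000 g ai/ha, flat-fan track sprayer with nozzle 40–45 cm above soil or canopy. Post-emerge runs used 0.25% v/v surfactant on 2–3 leaf plants.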

[3] = test system: upland rice (Oryza sp., var. Tebonnet, RICE); test: Post-emerge test, crop safety; settings: rating scale 0-100 (0 no damage, 100 complete death), 14 days after application
In short: as §1

[4] = test system: johnsongrass (Sorghum halepense, SORHA); test: Post-emerge test, greenhouse herbicide activity screening; settings: rating scale 0-100 (0 no damage, 100 complete death), 14 days after application
In short: as §1

[5] = test system: redroot pigweed (Amaranthus retroflexus, AMARE); test: as above; settings: rating scale 0-100 (0 no damage, 100 complete death), 14 days after application
In short: as §1

[6] = test system: barnyardgrass (Echinochloa crus-galli, ECHCG); test: as above; settings: rating scale 0-100 (0 no damage, 100 complete death), 14 days after application
In short: as §1

[7] = test system: velvetleaf (Abutilon theophrasti, ABUTH); test: as above; settings: rating scale 0-100 (0 no damage, 100 complete death), 14 days after application
In short: as §1

[8] = test system: sicklepod (Cassia obtusifolia, CASOB); test: as above; settings: rating scale 0-100 (0 no damage, 100 complete death), 14 days after application
In short: as §1

[9] = test system: ivyleaf morningglory (Ipomoea hederacea, IPOHE); test: as above; settings: rating scale 0-100 (0 no damage, 100 complete death), 14 days after application
In short: as §1

[10] = test system: green foxtail (Setaria viridis, SETVI); test: as above; settings: rating scale 0-100 (0 no damage, 100 complete death), 14 days after application
In short: as §1

[11] = test system: large crabgrass (Digitaria sanguinalis, DIGSA); test: as above; settings: rating scale 0-100 (0 no damage, 100 complete death), 14 days after application
In short: as §1

[12] = test system: lambsquarters (Chenopodium album, CHEAL); test: as above; settings: rating scale 0-100 (0 no damage, 100 complete death), 14 days after application
In short: as §1

[13] = test system: johnsongrass (Sorghum halepense, SORHA); test: Pre-emerge test, greenhouse herbicide activity screening; settings: rating scale 0-100, 14 days after application
In short: (§2)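 Compounds in acetone were track-sprayed at 15–1000 g ai/ha: pre-emergence onto soil sown the previous day, then top-watered to incorporate and later bottom-watered; post-emergence onto 2–3 leaf plants with 0.25% v/v surfactant, bottom-watered only. Ratings on a 0–100 phytotoxicity scale were taken at day 14.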

[14] = test system: barnyardgrass (Echinochloa crus-galli, ECHCG); test: as above; settings: rating scale 0-100, 14 days after application
In short: as §2

[15] = test system: velvetleaf (Abutilon theophrasti, ABUTH); test: as above; settings: rating scale 0-100, 14 days after application
In short: as §2

[16] = test system: sicklepod (Cassia obtusifolia, CASOB); test: as above; settings: rating scale 0-100, 14 days after application
In short: as §2

[17] = test system: ivyleaf morningglory (Ipomoea hederacea, IPOHE); test: as above; settings: rating scale 0-100, 14 days after application
In short: as §2

[18] = test system: green foxtail (Setaria viridis, SETVI); test: as above; settings: rating scale 0-100, 14 days after application
In short: as §2

[19] = test system: large crabgrass (Digitaria sanguinalis, DIGSA); test: as above; settings: rating scale 0-100, 14 days after application
In short: as §2

[20] = test system: lambsquarters (Chenopodium album, CHEAL); test: as above; settings: rating scale 0-100, 14 days after application
In short: as §2

[21] = test system: field corn (Zea mays L., var. Dekalb 535, CORN); test: Pre-emerge test, crop safety; settings: rating scale 0-100, 14 days after application
In short: (§3)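 Fourteen days after spraying, crop and weed injury was graded visually from 0, no effect, to 100, every plant dead. Test substances were dissolved in acetone and applied at 15–1000 g ai/ha with a flat-fan nozzle. Application was either pre-emergence, one day after sowing, or post-emergence at the 2–3 leaf stage.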

[22] = test system: upland rice (Oryza sp., var. Tebonnet, RICE); test: Pre-emerge test, crop safety; settings: rating scale 0-100, 14 days after application
In short: as §3

Structure (SMILES): COc1c(Cl)cc(F)c(-n2c(=O)cc(C(F)(F)F)n(C)c2=O)c1CC(C)(Cl)C(=O)OCc1ccccc1 (centres unmarked) [14-41]
- Pre-emerge herbicidal activity, phytotoxicity rating AMARE ([1]; 63 g ai/ha): 100
- Pre-emerge herbicidal activity, phytotoxicity rating AMARE ([1]; 250 g ai/ha): 100
- Post-emerge phytotoxicity rating CORN (crop damage) ([2]; Rate 63 g ai/ha): 100
- Post-emerge phytotoxicity rating CORN (crop damage) ([2]; Rate 250 g ai/ha): 100
- Post-emerge phytotoxicity rating RICE (crop damage) ([3]; Rate 63 g ai/ha): 20
- Post-emerge phytotoxicity rating RICE (crop damage) ([3]; Rate 250 g ai/ha): 95
- Post-emerge Herbicidal Activity, phytotoxicity rating SORHA ([4]; Rate 63 g ai/ha): 40
- Post-emerge Herbicidal Activity, phytotoxicity rating SORHA ([4]; Rate 250 g ai/ha): 70
- Post-emerge Herbicidal Activity, phytotoxicity rating AMARE ([5]; Rate 63 g ai/ha): 100
- Post-emerge Herbicidal Activity, phytotoxicity rating AMARE ([5]; Rate 250 g ai/ha): 100
- Post-emerge Herbicidal Activity, phytotoxicity rating ECHCG ([6]; Rate 63 g ai/ha): 100
- Post-emerge Herbicidal Activity, phytotoxicity rating ECHCG ([6]; Rate 250 g ai/ha): 100
- Post-emerge Herbicidal Activity, phytotoxicity rating ABUTH ([7]; Rate 63 g ai/ha): 100
- Post-emerge Herbicidal Activity, phytotoxicity rating ABUTH ([7]; Rate 250 g ai/ha): 100
- Post-emerge Herbicidal Activity, phytotoxicity rating CASOB ([8]; Rate 63 g ai/ha): 0
- Post-emerge Herbicidal Activity, phytotoxicity rating CASOB ([8]; Rate 250 g ai/ha): 0
- Post-emerge Herbicidal Activity, phytotoxicity rating IPOHE ([9]; Rate 63 g ai/ha): 30
- Post-emerge Herbicidal Activity, phytotoxicity rating IPOHE ([9]; Rate 250 g ai/ha): 50
- Post-emerge Herbicidal Activity, phytotoxicity rating SETVI ([10]; Rate 63 g ai/ha): 90
- Post-emerge Herbicidal Activity, phytotoxicity rating SETVI ([10]; Rate 250 g ai/ha): 100
- Post-emerge Herbicidal Activity, phytotoxicity rating DIGSA ([11]; Rate 63 g ai/ha): 100
- Post-emerge Herbicidal Activity, phytotoxicity rating DIGSA ([11]; Rate 250 g ai/ha): 100
- Post-emerge Herbicidal Activity, phytotoxicity rating CHEAL ([12]; Rate 63 g ai/ha): 100
- Post-emerge Herbicidal Activity, phytotoxicity rating CHEAL ([12]; Rate 250 g ai/ha): 100
- Pre-emerge herbicidal activity, phytotoxicity rating SORHA ([13]; 63 g ai/ha): 0
- Pre-emerge herbicidal activity, phytotoxicity rating SORHA ([13]; 250 g ai/ha): 0
- Pre-emerge herbicidal activity, phytotoxicity rating ECHCG ([14]; 63 g ai/ha): 0
- Pre-emerge herbicidal activity, phytotoxicity rating ECHCG ([14]; 250 g ai/ha): 80
- Pre-emerge herbicidal activity, phytotoxicity rating ABUTH ([15]; 63 g ai/ha): 90
- Pre-emerge herbicidal activity, phytotoxicity rating ABUTH ([15]; 250 g ai/ha): 100
- Pre-emerge herbicidal activity, phytotoxicity rating CASOB ([16]; 63 g ai/ha): 0
- Pre-emerge herbicidal activity, phytotoxicity rating CASOB ([16]; 250 g ai/ha): 0
- Pre-emerge herbicidal activity, phytotoxicity rating IPOHE ([17]; 63 g ai/ha): 0
- Pre-emerge herbicidal activity, phytotoxicity rating IPOHE ([17]; 250 g ai/ha): 40
- Pre-emerge herbicidal activity, phytotoxicity rating SETVI ([18]; 63 g ai/ha): 30
- Pre-emerge herbicidal activity, phytotoxicity rating SETVI ([18]; 250 g ai/ha): 100
- Pre-emerge herbicidal activity, phytotoxicity rating DIGSA ([19]; 63 g ai/ha): 50
- Pre-emerge herbicidal activity, phytotoxicity rating DIGSA ([19]; 250 g ai/ha): 100
- Pre-emerge herbicidal activity, phytotoxicity rating CHEAL ([20]; 63 g ai/ha): 100
- Pre-emerge herbicidal activity, phytotoxicity rating CHEAL ([20]; 250 g ai/ha): 100
- Pre-emerge phytotoxicity rating, crop damage CORN ([21]; 63 g ai/ha): 0
- Pre-emerge phytotoxicity rating, crop damage CORN ([21]; 250 g ai/ha): 0
- Pre-emerge phytotoxicity rating, crop damage RICE ([22]; 63 g ai/ha): 0
- Pre-emerge phytotoxicity rating, crop damage RICE ([22]; 250 g ai/ha): 50
